Where two headings read alike, the source gives them in different places.
Assays:
YFV 17D = assay: microbe, parasite or virus in culture; assay type: cell-based; details: Yellow fever virus, Huh-7, read-out: EC50 YFV 17D Huh7
Sindbis = assay: Antiviral CPE reduction assay; assay type: cell-based; details: Sindbis virus, Huh-7, Huh7 cells
RSV A Long = assay: Antiviral CPE reduction assay; assay type: cell-based, respiratory syncytial virus A; details: human respiratory syncytial virus, HEL 299 cells
in vitro [1] = details: human
HCoV 229E = assay: Antiviral CPE reduction assay; assay type: cell-based; details: Human coronavirus 229E, HEL 299 cells
in vitro [2] = details: human; remark: listed apart in the source
HCoV NL63 = assay: Antiviral CPE reduction assay; assay type: cell-based; details: Human coronavirus NL63, Huh-7, Huh7 cells
HCoV OC43 = assay: Antiviral CPE reduction assay; assay type: cell-based, human coronavirus OC43; details: Betacoronavirus 1, OC43, HEL 299 cells
Zika mr766 = assay: Antiviral CPE reduction assay; assay type: cell-based; details: Zika virus, Huh-7, Huh7 cells
E. coli Efflux Del = assay: microbe, parasite or virus in culture; assay type: cell-based; details: Escherichia coli, read-out: MIC E. coli Efflux Del
Experimental: (§1) Synthesized compounds were prepared as 10 mM DMSO solutions and tested in a final concentration range of 100–0.2 µM [34].
(§2) Broth microdilution testing was performed according to CLSI (Clinical Laboratory Standards Institute) guidelines. MIC (minimal inhibitory concentration) values were defined as the last tested concentration of the compound at which there was no visible growth of bacteria. Inoculums for each microorganism were prepared using the direct colony suspension method, where broth solutions that achieved turbidity equivalent to 0.5 McFarland standard were additionally diluted 100× with Ca-adjusted MH media (Becton Dickinson).

[3] = system: LN-229 glioblastoma cells; assay: In vitro antiproliferative activity, MTS proliferation assay; assay type: cell-based; details: Homo sapiens, 72 h
Description: (§3) Human cancer cell lines used in this manuscript, namely Capan-1, HCT-116, NCI-H460, LN-229, HL-60, K-562, Z-138, SW620, PC3 and HeLa, were acquired from the American Type Culture Collection (ATCC, Manassas, VA, USA), while the DND-41 cell line was purchased from the Deutsche Sammlung von Mikroorganismen und Zellkulturen (DSMZ Leibniz-Institut, Germany). Culture media were purchased from Gibco Life Technologies, USA, and supplemented with 10% fetal bovine serum (HyClone, GE Healthcare Life Sciences, Chicago, IL, USA), except for the media for SW620, PC3 and HeLa cells, which were purchased from Sigma.
(§4) Adherent cell lines LN-229, HCT-116, NCI-H460 and Capan-1 cells were seeded at a density between 500 and 1500 cells per well in 384-well tissue culture plates (Greiner). […]. Cells were incubated for 72 h with compounds and were then analyzed using the CellTiter 96® AQueous One Solution Cell Proliferation Assay (MTS) reagent (Promega) according to the manufacturer’s instructions. Absorbance of the samples was measured at 490 nm using a SpectraMax Plus 384 (Molecular Devices), and OD values were used to calculate the 50% inhibitory concentration (IC50). Compounds were tested in two independent experiments. SW620, PC3 and HeLa cells were seeded in 96-well microtiter plates at 1 × 10^4 to 3 × 10^4 cells/mL, depending on the doubling times of the specific cell line. Test agents were then added in five 10-fold dilutions (10^−8 to 10^−4 M). Working dilutions were freshly prepared on the day of testing. After 72 h of incubation, the cell growth rate was evaluated using the MTT assay as described previously. Absorbance of the samples was measured at 570 nm, and OD values were used to calculate the 50% inhibitory concentration (IC50). Each test was performed in quadruplicate in at least two individual experiments.

[4] = system: HCT-116 colorectal carcinoma cells; assay: as above; assay type: cell-based; details: Homo sapiens, 72 h
Description: as §3, §4

[5] = system: NCI-H460 lung carcinoma cells; assay: as above; assay type: cell-based; details: Homo sapiens, 72 h
Description: as §3, §4

[6] = system: K-562 chronic myeloid leukemia cells; assay: as above; assay type: cell-based; details: Homo sapiens, K562, 72 h
Description: as §3, §4

in vitro [7] = details: dog
[8] = system: SW620 colon carcinoma cells; assay: In vitro antiproliferative activity, MTT assay; assay type: cell-based; details: Homo sapiens, SW-620, 72 h
Description: as §3, §4

[9] = system: HeLa cervical carcinoma cells; assay: In vitro antiproliferative activity, MTT assay; assay type: cell-based; details: Homo sapiens, 72 h
Description: as §3, §4

[10] = system: PC3 prostate carcinoma cells; assay: In vitro antiproliferative activity, MTT assay; assay type: cell-based; details: Homo sapiens, 72 h
Description: as §3, §4

[11] = system: Z-138 non-Hodgkin lymphoma cells; assay: In vitro antiproliferative activity, MTS proliferation assay; assay type: cell-based, human; details: Homo sapiens, Z-138, 72 h
Description: as §3, §4

in vitro [12] = assay: in vitro
[13] = system: HL-60 acute myeloid leukemia cells; assay: In vitro antiproliferative activity, MTS proliferation assay; assay type: cell-based; details: Homo sapiens, 72 h
Experimental: (§5) Culture media were purchased from Gibco Life Technologies, USA, and supplemented with 10% fetal bovine serum (HyClone, GE Healthcare Life Sciences, Chicago, IL, USA), except for the media for SW620, PC3 and HeLa cells, which were purchased from Sigma.
(§6) Cells were incubated for 72 h with compounds and were then analyzed using the CellTiter 96® AQueous One Solution Cell Proliferation Assay (MTS) reagent (Promega) according to the manufacturer’s instructions. […] Compounds were tested in two independent experiments. SW620, PC3 and HeLa cells were seeded in 96-well microtiter plates at 1 × 10^4 to 3 × 10^4 cells/mL, depending on the doubling times of the specific cell line. Test agents were then added in five 10-fold dilutions (10^−8 to 10^−4 M). Working dilutions were freshly prepared on the day of testing. After 72 h of incubation, the cell growth rate was evaluated using the MTT assay as described previously. […] Each test was performed in quadruplicate in at least two individual experiments.

[14] = system: Capan-1 pancreatic adenocarcinoma cells; assay: as above; assay type: cell-based; details: Homo sapiens, 72 h
Experimental: as §5, §6

[15] = system: DND-41 acute lymphoblastic leukemia cells; assay: as above; assay type: cell-based; details: Homo sapiens, DND41, 72 h
Experimental: as §5, §6

S. Pneumoniae ATCC 49619 = assay: Antibacterial activity in vitro, broth microdilution; assay type: cell-based; details: Streptococcus pneumoniae, ATCC49619; broth microdilution (CLSI), 16–24 h at 37 °C
Experimental: as §1, §2

S. aureus ATCC 29213 = assay: as above; assay type: cell-based; details: Staphylococcus aureus, ATCC29213; broth microdilution (CLSI), 16–24 h at 37 °C
Experimental: as §1, §2

E. coli ATCC 25922 = assay: as above; assay type: cell-based; details: Escherichia coli, ATCC25922; broth microdilution (CLSI), 16–24 h at 37 °C
Experimental: as §1, §2

HSV-1 KOS = assay: Antiviral CPE reduction assay; assay type: cell-based, herpes simplex virus-1; details: Human alphaherpesvirus 1
[16] = system: Influenza H1N1 (A/Ned/378/05); assay: Antiviral CPE reduction assay; assay type: cell-based; details: Influenza A virus, MDCK cells
[17] = system: Influenza B (B/Ned/537/05); assay: Antiviral CPE reduction assay; assay type: cell-based; details: Influenza B virus, MDCK cells
[18] = system: Influenza H3N2 (A/HK/7/87); assay: Antiviral CPE reduction assay; assay type: cell-based; details: Influenza A virus, MDCK cells

For CCC(CC)COC(=O)[C@H](C)N[P@](=O)(OC[C@H]1O[C@@](C#N)(c2ccc3c(N)ncnn23)[C@H](O)[C@@H]1O)Oc1ccccc1 [Remdesivir, remdesivir, reference compound], the EC50 (YFV 17D) was 6.2 µM, the EC50 (Sindbis) was greater than 10 µM and the EC50 (RSV A Long; CPE reduction) was 0.03 ± 0.01 µM. For the same molecule, the CC50 (in vitro [1]) was greater than 10 µM, the EC50 (HCoV 229E) was 0.06 µM and the CC50 (in vitro [2]) was greater than 10 µM. It also gave an EC50 (HCoV NL63) of 0.03 µM, an EC50 (HCoV OC43) of 0.06 µM and an EC50 (Zika mr766) of 0.7 µM.
Cl.c1cnc2nc(-c3ccc(C4=NCCN4)cc3)[nH]c2c1 [Compound 11, 2-(4-(4,5-Dihydro-1H-imidazol-2-yl)phenyl)-1H-imidazo[4,5-b]pyridine Hydrochloride] gave an MIC (E. coli Efflux Del) greater than 64 µM, an IC50 [3] of 81.7 ± 17.4 µM and an IC50 [4] greater than 100 µM. The IC50 [5] was 84.9 ± 21.4 µM, the IC50 [6] was greater than 100 µM and the melting point was greater than 300 °C. For the same molecule, the CC50 (in vitro [7]) was greater than 100 µM, the IC50 [8] was 12.1 ± 3.7 µM and the IC50 [9] was 11.1 ± 3.5 µM. It also gave an IC50 [10] of no less than 100 µM, an IC50 [11] of 76.4 ± 33.4 µM and a CC50 (in vitro [12]) greater than 30 µM. The IC50 [13] was greater than 100 µM, the IC50 [14] was 74.5 ± 36.1 µM and the IC50 [15] was 48.8 ± 12.5 µM. The MIC (S. Pneumoniae ATCC 49619) was greater than 64 µM, the MIC (S. aureus ATCC 29213) was greater than 64 µM and the MIC (E. coli ATCC 25922) was greater than 64 µM.
For O=c1[nH]c(=O)n([C@H]2C[C@H](O)[C@@H](CO)O2)cc1/C=C/Br [BVDU, brivudine, reference compound], the EC50 (HSV-1 KOS) was 0.05 µM and the CC50 (in vitro [7]) was greater than 100 µM.
In the case of NC(=O)c1ncn([C@@H]2O[C@H](CO)[C@@H](O)[C@H]2O)n1 [Ribavirin, ribavirin, reference compound], the EC50 (YFV 17D) is reported as greater than 250 µM, the EC50 (RSV A Long; HEL 299, CPE reduction) is reported as 10.8 ± 2.1 µM and the EC50 [16] is reported as 10.5 ± 3.8 µM. For the same molecule, the CC50 (in vitro [7]) was 80.2 ± 18.6 µM, the EC50 (HCoV 229E) was 82.6 µM and the EC50 (HCoV NL63) was greater than 250 µM. The EC50 (HCoV OC43) was 170 µM, the EC50 [17] was 2.8 ± 1.8 µM and the EC50 [18] was 4 ± 2.7 µM. It also gave an EC50 (Zika mr766) greater than 250 µM.

From PMC9822021, “Biological Activity of Amidino-Substituted Imidazo [4,5-b]pyridines” (Molecules, 2022)
